Each structure is given as a SMILES string.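 All cell lines were grown in 96-well plates and treated with compound for 48 hours. The concentration for 50% growth inhibition is given as GI50.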 Activity calls are given as the source filed them. No stated cut-off is given here; in the data, active = GI50 up to about 1.1 µM and inactive = higher.

The results in this text go back to ChEMBL document CHEMBL1201862, “PubChem BioAssay data set” (2004).

Some test systems named below: OVCAR-3; MOLT-4; CCRF-CEM; SF-268; RPMI-8226; SR; A549; EKVX; SNB-19; NCI-H226; MCF7; TK-10; HCT-15; NCI-H460; SK-MEL-28; DU-145; MDA-MB-231; SF-295.
Experiment in all cases: NCI anticancer screen, dose series, 48 h

In the case of `Nc1nc(Nc2ccc(Cl)cc2)sc1C(=O)c1cccs1`, the GI50 in the assay with OVCAR-3 was 5.57 µM (inactive); in the assay on MOLT-4 it was > 100 µM (inactive); in the assay with CCRF-CEM, 53.7 µM (inactive); in the assay on SF-268, 28.7 µM (inactive); in the assay with RPMI-8226, > 100 µM (inactive); in the assay with SR, 2.4 µM (inactive). The GI50 in the assay on A549 is 27.9 µM (inactive); in the assay on EKVX, 20 µM (inactive); in the assay with SNB-19 it was 19.9 µM (inactive); in the assay with NCI-H226, 24.7 µM (inactive); in the assay on MCF7 it was 33.4 µM (inactive); in the assay on TK-10, 13.1 µM (inactive). In addition, the GI50 with HCT-15 is over 100 µM; in the assay on NCI-H460, 17.9 µM (inactive); with SK-MEL-28, > 100 µM (inactive); in the assay with DU-145, 78.9 µM (inactive); in the assay on MDA-MB-231, 40 µM (inactive).

As to `O=c1[nH]c(=O)n(C2CC(O)C(CO)O2)cc1OCc1ccccc1` (stereo not drawn), the GI50 with OVCAR-3, in the assay on MOLT-4, in the assay on CCRF-CEM, in the assay with SF-268, in the assay with RPMI-8226 and in the assay with SR was > 100 µM (inactive) throughout. The GI50 with A549, with EKVX, with SNB-19, in the assay on NCI-H226, in the assay with MCF7 and in the assay on TK-10 was > 100 µM (inactive) throughout. Also, the GI50 is over 100 µM with HCT-15; > 100 µM (inactive) in the assay with NCI-H460; > 100 µM (inactive) with SK-MEL-28; > 100 µM (inactive) in the assay with DU-145; > 100 µM (inactive) in the assay on MDA-MB-231.

In the case of `Cc1ccc([N+](=O)[O-])cc1S(=O)(=O)Nc1ccc(C2=NN(C(=O)c3ccccc3)C(c3ccccc3O)C2)cc1` (stereo not drawn), the GI50 was 17 µM (inactive) with OVCAR-3; 13.6 µM (inactive) in the assay with MOLT-4; 17.5 µM (inactive) in the assay on CCRF-CEM; 12.8 µM (inactive) in the assay with SF-268; 11.5 µM (inactive) in the assay with RPMI-8226; 21.2 µM (inactive) in the assay on SR. For the same compound, the GI50 was 19.1 µM (inactive) in the assay with A549; 12.6 µM (inactive) in the assay with EKVX; 28.2 µM (inactive) in the assay on SNB-19; 14.9 µM (inactive) in the assay on NCI-H226; 13.4 µM (inactive) with MCF7; 13.7 µM (inactive) in the assay with TK-10. In addition, the GI50 in the assay with HCT-15 is 13.2 µM; with SF-295 it was 23.4 µM (inactive); in the assay with SK-MEL-28, 28.2 µM (inactive); in the assay on DU-145 it was 20.2 µM (inactive); in the assay with MDA-MB-231 it was 15.7 µM (inactive).

On to `CCCC/N=C(/c1ccccc1)N1CCOCC1`, for which the GI50 in the assay with OVCAR-3, with MOLT-4, with CCRF-CEM, in the assay with SF-268, in the assay on RPMI-8226 and in the assay with SR was > 100 µM (inactive) in each case. In addition, the GI50 in the assay on EKVX was > 100 µM (inactive); in the assay with SNB-19 it was > 100 µM (inactive); in the assay on NCI-H226, > 100 µM (inactive); in the assay with MCF7, > 100 µM (inactive); in the assay on TK-10 it was > 100 µM (inactive); with HCT-15, over 100 µM. Also, the GI50 in the assay on SF-295, with NCI-H460, with SK-MEL-28, in the assay on DU-145 and in the assay with MDA-MB-231 was > 100 µM (inactive) each time.
